US20230143604A1, “QW DOSING OF GIP RECEPTOR AGONIST PEPTIDE COMPOUNDS AND USES THEREOF” (TAKEDA PHARMACEUTICAL COMPANY LIMITED, priority 2020, published 2023)
Starred links: 1 amine or outer side, 2 acyl side, 3 side chain; linkers in the order of their positions; H or OH if unused. Non-standard residues stand in square brackets, D forms with d. Residues, ends and D or L forms follow the SMILES beside them. Groups on a side chain read outwards from the residue. *: point of attachment. C18 diacid = O=C(O)CCCCCCCCCCCCCCCCC(=O)*; C17 diacid = O=C(O)CCCCCCCCCCCCCCCC(=O)*; γGlu = O=C(O)[C@H](CCC(=O)[*:2])N[*:1]; NMeY = CN[C@@H](Cc1ccc(O)cc1)C(=O)O; AEEA = NCCOCCOCC(=O)O; Aib = CC(C)(N)C(=O)O

Tests used:
[1] = Dog plasma protein binding (PPB); type: in vitro ADME; settings: pH 7.4; fraction unbound; dog serum; read-out: Dog PPB (FUplasma)
Source text: Dog PPB values presented below are obtained essentially as described for Human PPB samples, with the difference being that dog serum is used instead of human serum. Table 10 is provided with the values of (Fu,plasma) as fraction unbound expressed as a percentage compared to the percent bound. i.e. if the value is 0.0123, then the fraction unbound is […], which is 1.23% of the peptide is unbound and 98.77% is bound in plasma. Methods and analysis for performing the dog PPB protocol and results are the same as noted herein as for the Human PPB protocol and analysis.

physchem = assay: physchem
Outline: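 Solubility at pH 7.4 determined by stepwise addition of 200 mM phosphate buffer in 100 μL increments to 3 mg peptide, mixing briefly each time, until no insoluble material remained, then measured by liquid chromatography.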

[2] = Human plasma protein binding (PPB); type: in vitro ADME; settings: for fraction unbound / fraction unbound at 30 min, 1000 nmol/L: both sexes, pH 7.4, human plasma, 1000 nmol/L peptide, ultracentrifugation, read-out: Human PPB (FUplasma); for free unbound peptide in human plasma (in words): judged for once per week (QW) dosing
Protocol: Stock solutions: (1000 μM) of the peptides are prepared in DMSO.
Human plasma (mixed gender; containing K2-EDTA as anti-coagulant; pre-adjusted to pH 7.4—NB alternative species may be used) is spiked individually with each test peptide (1000 nmol/L), sampled for analysis and then incubated (n=4) at 37° C. in a water bath for 30 minutes. Following the incubation period, the plasma is sampled for analysis, then transferred to ultracentrifugation tubes and centrifuged (n=3) at […] and 4° C. for 3 hours, after which the supernatant is sampled for analysis. An additional aliquot of the supernatant is taken at the end of the centrifugation period to determine the total protein concentration. An aliquot of the incubated plasma will be stored at 4° C. for 3 hours and then sampled for analysis. At the point of sampling, all samples are matrix-matched, treated with ice-cold acetonitrile/methanol (4:1 (vfv)) containing internal standard, centrifuged al 2000 g and 4° C. for 10 minutes and stored prior to LC-MS/MS analysis. An appropriate positive control compound control will be incubated and centrifuged in parallel; control plasma is also centrifuged to generate samples for matrix-matching. Fraction unbound in plasma (Fuplasma) values is determined by comparison of the analyte response in plasma to the analyte response in the supernatant, determined via peak area response ratios.
The samples are analyzed by LC-MS/MS using a 6500 (or equivalent) triple quadrupole mass spectrometer (AB Sciex) coupled to an appropriate Liquid Chromatography (LC) system. Protein binding and stability values are determined via peak area ratios using multiple reaction monitoring (MRM) parameters following compound optimisation. Multiple reaction monitoring (MRM) is a highly sensitive method of targeted mass spectrometry (MS) that can be used to selectively detect and quantify peptides based on the screening of specified precursor peptide-to-fragment ion transitions.

[3] = pH 7.4, aqueous buffer, pH 7.4 Phosphate Buffer - Solubility, 200 mM Phosphate buffer pH 7.4
[4] = pH 7.4, solubility in phosphate buffer at pH 7.4, 200 mM phosphate buffer pH 7.4

Compound | fraction unbound [1] | solubility (physchem; pH 7.4, aqueous buffer) | fraction unbound [2] | free unbound peptide in human plasma (in words) [2] | fraction unbound at 30 min, 1000 nmol/L [1] | solubility (physchem; [3]) | solubility (physchem; [4]) | fraction unbound at 30 min, 1000 nmol/L [2] | solubility (physchem; pH 7.4)
CC[C@H](C)[C@H](NC(=O)[C@H](CO)NC(=O)[C@H](Cc1ccc(O)cc1)NC(=O)[C@H](CC(=O)O)NC(=O)[C@H](CO)NC(=O)[C@@H](NC(=O)[C@H](Cc1ccccc1)NC(=O)[C@@H](NC(=O)CNC(=O)[C@H](CCC(=O)O)NC(=O)C(C)(C)NC(=O)[C@H](Cc1ccc(O)cc1)NC)[C@@H](C)O)[C@@H](C)CC)C(=O)N[C@@H](C)C(=O)N[C@@H](CC(C)C)C(=O)N[C@@H](CC(=O)O)C(=O)N[C@@H](CCCNC(=N)N)C(=O)NC(C)(C)C(=O)N[C@@H](C)C(=O)N[C@@H](CCC(N)=O)C(=O)NC(C)(C)C(=O)N[C@@H](CCCCNC(=O)COCCOCCNC(=O)COCCOCCNC(=O)CC[C@H](NC(=O)CC[C@H](NC(=O)CCCCCCCCCCCCCCCC(=O)O)C(=O)O)C(=O)O)C(=O)N[C@@H](Cc1ccccc1)C(=O)N[C@H](C(=O)N[C@@H](CC(N)=O)C(=O)N[C@@H](Cc1c[nH]c2ccccc12)C(=O)N[C@@H](CC(C)C)C(=O)N[C@@H](CC(C)C)C(=O)N[C@@H](C)C(=O)N[C@@H](CCC(N)=O)C(=O)N[C@@H](CCCNC(=N)N)C(N)=O)C(C)C [Compound 8] (H-[NMeY][Aib]EGTFISDYSIALDR[Aib]AQ[Aib]K([AEEA-AEEA-γGlu-γGlu-C17 diacid])FVNWLLAQR-NH2) | 0.0016 | ≥ 15 mg/mL | 0.0009 | optimum free unbound peptide |  |  |  |  | 
CC[C@H](C)[C@H](NC(=O)[C@H](CO)NC(=O)[C@H](Cc1ccc(O)cc1)NC(=O)[C@H](CC(=O)O)NC(=O)[C@H](CO)NC(=O)[C@@H](NC(=O)[C@H](Cc1ccccc1)NC(=O)[C@@H](NC(=O)CNC(=O)[C@H](CCC(=O)O)NC(=O)C(C)(C)NC(=O)[C@H](Cc1ccc(O)cc1)NC)[C@@H](C)O)[C@@H](C)CC)C(=O)N[C@@H](C)C(=O)N[C@@H](CC(C)C)C(=O)N[C@@H](CC(=O)O)C(=O)N[C@@H](CCCNC(=N)N)C(=O)NC(C)(C)C(=O)N[C@@H](CCCCNC(=O)COCCOCCNC(=O)COCCOCCNC(=O)CC[C@H](NC(=O)CC[C@H](NC(=O)CCCCCCCCCCCCCCCC(=O)O)C(=O)O)C(=O)O)C(=O)N[C@@H](CCC(N)=O)C(=O)NC(C)(C)C(=O)N[C@@H](CC(N)=O)C(=O)N[C@@H](Cc1ccccc1)C(=O)N[C@H](C(=O)N[C@@H](CC(N)=O)C(=O)N[C@@H](Cc1c[nH]c2ccccc12)C(=O)N[C@@H](CC(C)C)C(=O)N[C@@H](CC(C)C)C(=O)N[C@@H](C)C(=O)N[C@@H](CCC(N)=O)C(=O)N[C@@H](CO)C(=O)N1CCC[C@H]1C(=O)N[C@@H](CO)C(=O)N[C@@H](CO)C(=O)NCC(=O)N[C@@H](C)C(=O)N1CCC[C@H]1C(=O)N1CCC[C@H]1C(=O)N1CCC[C@H]1C(=O)N[C@@H](CO)C(N)=O)C(C)C [Compound 11] (H-[NMeY][Aib]EGTFISDYSIALDR[Aib]K([AEEA-AEEA-γGlu-γGlu-C17 diacid])Q[Aib]NFVNWLLAQSPSSGAPPPS-NH2) |  |  |  | optimum free unbound peptide | ≤ 0.0024 | ≥ 30 mg/mL | ≥ 15 mg/mL | 0.0038 | 
CC[C@H](C)[C@H](NC(=O)[C@H](Cc1ccccc1)NC(=O)[C@@H](NC(=O)CNC(=O)[C@H](CCC(=O)O)NC(=O)C(C)(C)NC(=O)[C@H](Cc1ccc(O)cc1)NC)[C@@H](C)O)C(=O)N[C@@H](CO)C(=O)N[C@@H](CC(=O)O)C(=O)N[C@@H](Cc1ccc(O)cc1)C(=O)N[C@@H](CO)C(=O)N[C@H](C(=O)NC(C)(C)C(=O)N[C@@H](CC(C)C)C(=O)N[C@@H](CC(=O)O)C(=O)N[C@@H](CCCNC(=N)N)C(=O)NC(C)(C)C(=O)N[C@@H](C)C(=O)N[C@@H](CCC(N)=O)C(=O)NC(C)(C)C(=O)N[C@@H](CCCCNC(=O)COCCOCCNC(=O)COCCOCCNC(=O)CC[C@H](NC(=O)CC[C@H](NC(=O)CCCCCCCCCCCCCCCC(=O)O)C(=O)O)C(=O)O)C(=O)N[C@@H](Cc1ccccc1)C(=O)N[C@H](C(=O)N[C@@H](CC(N)=O)C(=O)N[C@@H](Cc1c[nH]c2ccccc12)C(=O)N[C@@H](CC(C)C)C(=O)N[C@@H](CC(C)C)C(=O)N[C@@H](C)C(=O)N[C@@H](CCC(N)=O)C(=O)N[C@@H](CCCNC(=N)N)C(=O)N1CCC[C@H]1C(=O)N[C@@H](CO)C(=O)N[C@@H](CO)C(=O)NCC(=O)N[C@@H](C)C(=O)N1CCC[C@H]1C(=O)N1CCC[C@H]1C(=O)N1CCC[C@H]1C(=O)N[C@@H](CO)C(N)=O)C(C)C)[C@@H](C)CC [Compound 13] (H-[NMeY][Aib]EGTFISDYSI[Aib]LDR[Aib]AQ[Aib]K([AEEA-AEEA-γGlu-γGlu-C17 diacid])FVNWLLAQRPSSGAPPPS-NH2) |  |  |  |  | < 0.002 | ≥ 30 mg/mL | ≥ 15 mg/mL | < 0.002 | 
CC[C@H](C)[C@H](NC(=O)[C@H](CO)NC(=O)[C@H](Cc1ccc(O)cc1)NC(=O)[C@H](CC(=O)O)NC(=O)[C@H](CO)NC(=O)[C@@H](NC(=O)[C@H](Cc1ccccc1)NC(=O)[C@@H](NC(=O)CNC(=O)[C@H](CCC(=O)O)NC(=O)C(C)(C)NC(=O)[C@H](Cc1ccc(O)cc1)NC)[C@@H](C)O)[C@@H](C)CC)C(=O)N[C@@H](C)C(=O)N[C@@H](CC(C)C)C(=O)N[C@@H](CC(=O)O)C(=O)N[C@@H](CCCNC(=N)N)C(=O)NC(C)(C)C(=O)N[C@@H](Cc1c[nH]cn1)C(=O)N[C@@H](CCC(N)=O)C(=O)NC(C)(C)C(=O)N[C@@H](CC(N)=O)C(=O)N[C@@H](Cc1ccccc1)C(=O)N[C@H](C(=O)N[C@@H](CC(N)=O)C(=O)N[C@@H](Cc1c[nH]c2ccccc12)C(=O)N[C@@H](CC(C)C)C(=O)N[C@@H](CC(C)C)C(=O)N[C@@H](C)C(=O)N[C@@H](CCCCNC(=O)COCCOCCNC(=O)COCCOCCNC(=O)CC[C@H](NC(=O)CC[C@H](NC(=O)CCCCCCCCCCCCCCCCC(=O)O)C(=O)O)C(=O)O)C(=O)N[C@@H](CCCNC(=N)N)C(N)=O)C(C)C [Compound 19] (H-[NMeY][Aib]EGTFISDYSIALDR[Aib]HQ[Aib]NFVNWLLAK([AEEA-AEEA-γGlu-γGlu-C18 diacid])R-NH2) | 0.0005 | ≥ 30 mg/mL | 0.0011 |  |  |  |  |  | ≥ 15 mg/mL
CC[C@H](C)[C@H](NC(=O)[C@H](CO)NC(=O)[C@H](Cc1ccc(O)cc1)NC(=O)[C@H](CC(=O)O)NC(=O)[C@H](CO)NC(=O)[C@@H](NC(=O)[C@H](Cc1ccccc1)NC(=O)[C@@H](NC(=O)CNC(=O)[C@H](CCC(=O)O)NC(=O)C(C)(C)NC(=O)[C@H](Cc1ccc(O)cc1)NC)[C@@H](C)O)[C@@H](C)CC)C(=O)N[C@@H](C)C(=O)N[C@@H](CC(C)C)C(=O)N[C@@H](CC(=O)O)C(=O)N[C@@H](CCCNC(=N)N)C(=O)NC(C)(C)C(=O)N[C@@H](C)C(=O)N[C@@H](CCC(N)=O)C(=O)NC(C)(C)C(=O)N[C@@H](CCCCNC(=O)COCCOCCNC(=O)COCCOCCNC(=O)CC[C@H](NC(=O)CC[C@H](NC(=O)CCCCCCCCCCCCCCCC(=O)O)C(=O)O)C(=O)O)C(=O)N[C@@H](Cc1ccccc1)C(=O)N[C@H](C(=O)N[C@@H](CC(N)=O)C(=O)N[C@@H](Cc1c[nH]c2ccccc12)C(=O)N[C@@H](CC(C)C)C(=O)N[C@@H](CC(C)C)C(=O)N[C@@H](C)C(=O)N[C@@H](CCC(N)=O)C(=O)N[C@@H](CCCNC(=N)N)C(=O)NCC(=O)O)C(C)C [Compound 36] (H-[NMeY][Aib]EGTFISDYSIALDR[Aib]AQ[Aib]K([AEEA-AEEA-γGlu-γGlu-C17 diacid])FVNWLLAQRG-OH) | 0.0034 | ≥ 60 mg/mL | < 0.002 |  |  |  |  |  | ≥ 15 mg/mL
